Measured values published in PubChem BioAssay (NCI).
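GI50: concentration for 50% inhibition of growth. The concentration for full growth arrest is given as TGI.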

Legend:
Assay in all cases: NCI-60 cell line screen, 384-well format
SK-MEL-28 melanoma = tested on: SK-MEL-28 melanoma
SN12C renal = tested on: SN12C renal
UACC-257 melanoma = tested on: UACC-257 melanoma
SF-295 CNS = tested on: SF-295 CNS
ACHN renal = tested on: ACHN renal
HOP-92 NSCLC = tested on: HOP-92 NSCLC
SK-MEL-5 melanoma = tested on: SK-MEL-5 melanoma
A549 NSCLC = tested on: A549 NSCLC
NCI-H226 lung = tested on: NCI-H226 lung
KM12 colon = tested on: KM12 colon
SR leukemia = tested on: SR leukemia
NCI/ADR-RES ovarian = tested on: NCI/ADR-RES ovarian
RXF 393 renal = tested on: RXF 393 renal
CCRF-CEM leukemia = tested on: CCRF-CEM leukemia
MOLT-4 leukemia = tested on: MOLT-4 leukemia
OVCAR-4 ovarian = tested on: OVCAR-4 ovarian
U251 glioblastoma = tested on: U251 glioblastoma
SW-620 colon = tested on: SW-620 colon
SF-539 CNS = tested on: SF-539 CNS
NCI-H522 lung = tested on: NCI-H522 lung
HS 578T breast = tested on: HS 578T breast
SNB-75 CNS = tested on: SNB-75 CNS
K-562 leukemia = tested on: K-562 leukemia
786-0 renal = tested on: 786-0 renal
MCF7 breast = tested on: MCF7 breast
EKVX NSCLC = tested on: EKVX NSCLC
MDA-MB-435 melanoma = tested on: MDA-MB-435 melanoma
IGROV1 ovarian = tested on: IGROV1 ovarian
SK-MEL-2 melanoma = tested on: SK-MEL-2 melanoma
HOP-62 NSCLC = tested on: HOP-62 NSCLC
SNB-19 CNS = tested on: SNB-19 CNS
HT29 colon = tested on: HT29 colon
NCI-H460 NSCLC = tested on: NCI-H460 NSCLC
HL-60(TB) leukemia = tested on: HL-60(TB) leukemia
HCT-116 colon = tested on: HCT-116 colon
TK-10 renal = tested on: TK-10 renal
DU-145 prostate = tested on: DU-145 prostate
MDA-MB-468 breast = tested on: MDA-MB-468 breast
HCC-2998 colon = tested on: HCC-2998 colon
SF-268 CNS = tested on: SF-268 CNS
MDA-MB-231 breast = tested on: MDA-MB-231 breast
PC-3 prostate = tested on: PC-3 prostate
A498 renal = tested on: A498 renal
UACC-62 melanoma = tested on: UACC-62 melanoma
T-47D breast = tested on: T-47D breast
COLO 205 colon = tested on: COLO 205 colon
UO-31 renal = tested on: UO-31 renal
M14 melanoma = tested on: M14 melanoma
MALME-3M melanoma = tested on: MALME-3M melanoma
RPMI-8226 leukemia = tested on: RPMI-8226 leukemia
BT-549 breast = tested on: BT-549 breast
OVCAR-5 ovarian = tested on: OVCAR-5 ovarian
OVCAR-3 ovarian = tested on: OVCAR-3 ovarian
NCI-H322M lung = tested on: NCI-H322M lung
CAKI-1 renal = tested on: CAKI-1 renal
OVCAR-8 ovarian = tested on: OVCAR-8 ovarian
HCT-15 colon = tested on: HCT-15 colon
SK-OV-3 ovarian = tested on: SK-OV-3 ovarian
NCI-H23 lung = tested on: NCI-H23 lung
LOX IMVI melanoma = tested on: LOX IMVI melanoma

Cn1cc(-c2ccc(-c3ccc(C4=NC5(CC5)C(=O)N4C[C@@H]4CCN(C(=O)C5CC5)C4)cc3)cc2)cn1
GI50 (SK-MEL-28 melanoma): 27.8 µM | TGI (SK-MEL-28 melanoma): > 74.8 µM | GI50 (SN12C renal): 17.1 µM | TGI (SN12C renal): 83.8 µM | GI50 (UACC-257 melanoma): 38.4 µM | TGI (UACC-257 melanoma): > 74.7 µM | GI50 (SF-295 CNS): 14.3 µM | TGI (SF-295 CNS): > 81.6 µM | GI50 (ACHN renal): 18.7 µM | TGI (ACHN renal): > 90.1 µM | GI50 (HOP-92 NSCLC): 21.2 µM | TGI (HOP-92 NSCLC): 59.1 µM | GI50 (SK-MEL-5 melanoma): 15.5 µM | TGI (SK-MEL-5 melanoma): 37 µM | GI50 (A549 NSCLC): 20.2 µM | TGI (A549 NSCLC): > 100 µM | GI50 (NCI-H226 lung): 19 µM | TGI (NCI-H226 lung): 97.2 µM | GI50 (KM12 colon): 6.95 µM | TGI (KM12 colon): > 100 µM | GI50 (SR leukemia): 0.0145 µM | TGI (SR leukemia): 0.0828 µM | GI50 (NCI/ADR-RES ovarian): 14.2 µM | TGI (NCI/ADR-RES ovarian): 36.2 µM | GI50 (RXF 393 renal): 14.4 µM | TGI (RXF 393 renal): 40.7 µM | GI50 (CCRF-CEM leukemia): 11.7 µM | TGI (CCRF-CEM leukemia): 24.3 µM | GI50 (MOLT-4 leukemia): 11 µM | TGI (MOLT-4 leukemia): 23.2 µM | GI50 (OVCAR-4 ovarian): 8.64 µM | TGI (OVCAR-4 ovarian): 59.1 µM | GI50 (U251 glioblastoma): 10.2 µM | TGI (U251 glioblastoma): 38.1 µM | GI50 (SW-620 colon): 19.4 µM | TGI (SW-620 colon): > 67.9 µM | GI50 (SF-539 CNS): 13.7 µM | TGI (SF-539 CNS): > 56.4 µM | GI50 (NCI-H522 lung): 12.6 µM | TGI (NCI-H522 lung): 29.6 µM | GI50 (HS 578T breast): 10.5 µM | TGI (HS 578T breast): 39.1 µM | GI50 (SNB-75 CNS): 21.5 µM | TGI (SNB-75 CNS): > 87.7 µM | GI50 (K-562 leukemia): 6.43 µM | TGI (K-562 leukemia): > 95.4 µM | GI50 ([…]-0 renal): 12.8 µM | TGI (786-0 renal): 31.8 µM | GI50 (MCF7 breast): 3.21 µM | TGI (MCF7 breast): > 100 µM | GI50 (EKVX NSCLC): 33.3 µM | TGI (EKVX NSCLC): 98.2 µM | GI50 (MDA-MB-435 melanoma): 16.1 µM | TGI (MDA-MB-435 melanoma): 41.4 µM | GI50 (IGROV1 ovarian): 25.6 µM | TGI (IGROV1 ovarian): > 100 µM | GI50 (SK-MEL-2 melanoma): 21.9 µM | TGI (SK-MEL-2 melanoma): 41.8 µM | GI50 (HOP-62 NSCLC): 8.82 µM | TGI (HOP-62 NSCLC): 26.4 µM | GI50 (SNB-19 CNS): 26.4 µM | TGI (SNB-19 CNS): > 90.1 µM | GI50 (HT29 colon): 28.1 µM | TGI (HT29 colon): > 100 µM | GI50 (NCI-H460 NSCLC): 1.21 µM | TGI (NCI-H460 NSCLC): 2.97 µM | GI50 (HL-60(TB) leukemia): 0.0689 µM | TGI (HL-60(TB) leukemia): 16.3 µM | GI50 (HCT-116 colon): 4.95 µM | TGI (HCT-116 colon): 27.6 µM | GI50 (TK-10 renal): 27.5 µM | TGI (TK-10 renal): > 100 µM | GI50 (DU-145 prostate): 14.6 µM | TGI (DU-145 prostate): 59.6 µM | GI50 (MDA-MB-468 breast): 15.8 µM | TGI (MDA-MB-468 breast): 38.4 µM | GI50 (HCC-2998 colon): 23.7 µM | TGI (HCC-2998 colon): > 79.9 µM | GI50 (SF-268 CNS): 18.4 µM | TGI (SF-268 CNS): > 88.4 µM | GI50 (MDA-MB-231 breast): 12.3 µM | TGI (MDA-MB-231 breast): 56.1 µM | GI50 (PC-3 prostate): 20.4 µM | TGI (PC-3 prostate): 49 µM | GI50 (A498 renal): 17.6 µM | TGI (A498 renal): > 56.1 µM | GI50 (UACC-62 melanoma): 8.91 µM | TGI (UACC-62 melanoma): 22.5 µM | GI50 (T-47D breast): 11.9 µM | TGI (T-47D breast): 43.9 µM | GI50 (COLO 205 colon): 25.7 µM | TGI (COLO 205 colon): > 100 µM | GI50 (UO-31 renal): 1.06 µM | TGI (UO-31 renal): 2.43 µM | GI50 (M14 melanoma): 24.7 µM | TGI (M14 melanoma): > 79.5 µM | GI50 (MALME-3M melanoma): 23 µM | TGI (MALME-3M melanoma): 65.1 µM | TGI (RPMI-8226 leukemia): 9.91 µM | GI50 (BT-549 breast): 0.827 µM | TGI (BT-549 breast): 30.1 µM | GI50 (OVCAR-5 ovarian): 23.4 µM | TGI (OVCAR-5 ovarian): > 100 µM | GI50 (OVCAR-3 ovarian): 13.5 µM | TGI (OVCAR-3 ovarian): 31.2 µM | GI50 (NCI-H322M lung): 20 µM | TGI (NCI-H322M lung): 75.5 µM | GI50 (CAKI-1 renal): 1.99 µM | GI50 (OVCAR-8 ovarian): 13.4 µM | TGI (OVCAR-8 ovarian): 41.6 µM | GI50 (HCT-15 colon): 5.68 µM | TGI (HCT-15 colon): > 62.9 µM | GI50 (SK-OV-3 ovarian): 30 µM | TGI (SK-OV-3 ovarian): > 89.9 µM | GI50 (NCI-H23 lung): 14.9 µM | TGI (NCI-H23 lung): 37.7 µM | GI50 (LOX IMVI melanoma): 2.48 µM | TGI (LOX IMVI melanoma): 14 µM
